Assay results: US20220298135A1, “5-HETEROARYL-PYRIDIN-2-AMINE COMPOUNDS AS NEUROPEPTIDE FF RECEPTOR ANTAGONISTS” (Domain Therapeutics, priority 2019, published 2022)
Counter-ions that a name gives are not always drawn.

Key:
[1] = target: T1, human NPFFR1 (hNPFFR1) receptor (Homo sapiens, UniProt Q9GZQ6); assay: Human NPFFR1 evaluation using BRET biosensors (antagonist IC50); assay type: cell-based; conditions: hNPFFR1 transiently over-expressed in HEK-293 T cells; BRET signal; stimulation by EC80 RFRP-3
T1 construct: expressed in transfected cells; host or cells: HEK-293 T cells, transient co-transfection with polyethylenimine
T1 sequence (Q9GZQ6 whole entry): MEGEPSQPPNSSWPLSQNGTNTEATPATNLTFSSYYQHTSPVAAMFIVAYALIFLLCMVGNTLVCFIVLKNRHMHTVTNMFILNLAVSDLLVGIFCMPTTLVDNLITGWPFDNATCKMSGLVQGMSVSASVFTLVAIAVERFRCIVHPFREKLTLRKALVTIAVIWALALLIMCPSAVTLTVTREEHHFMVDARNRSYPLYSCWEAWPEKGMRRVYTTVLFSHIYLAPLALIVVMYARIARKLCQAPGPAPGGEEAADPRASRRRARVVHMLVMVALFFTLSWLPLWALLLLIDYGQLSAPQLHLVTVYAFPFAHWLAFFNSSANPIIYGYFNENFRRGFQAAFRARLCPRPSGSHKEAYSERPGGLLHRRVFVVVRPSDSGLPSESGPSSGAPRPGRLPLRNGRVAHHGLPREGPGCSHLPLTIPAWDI
Description: Compounds of the present invention were tested successively for their agonist and antagonist activities on human NPFFR1 (hNPFFR1) receptor transiently over-expressed in HEK-293 T cells. Compounds exert agonist activity if, by themselves in absence of neuropeptide RFRP-3 (also named NPVF) they activate hNPFFR1; and they exert antagonist activity if they decrease the action of RFRP-3 on the receptor.
The assay used to measure compound activity is based on BRET (Bioluminescence Resonance Energy Transfer) biosensors and is designed to monitor the plasma membrane translocation of protein that interacts with specific Ga subunit. The specific effector (luciferase tagged: BRET donor) recruited at the membrane will be in close proximity to a plasma membrane anchor (GFP tagged: BRET acceptor) to induce a BRET signal. Biosensors are described in the patent application WO 2016/041093 A1 (Biosensors for monitoring biomolecule localization and trafficking in cells).
HEK-293 T cells are maintained in Dulbecco's Modified Eagle's Medium supplemented with 10% Foetal Calf Serum, 1% Penicillin/Streptomycin at 37° C./5% CO2.
Cells are co-transfected using polyethylenimine (25 kDa linear) with four DNA plasmids encoding: hNPFFR1, GαoB, a Gi family specific intracellular effector fused to luciferase (BRET donor), a plasma membrane effector fused to GFP (BRET acceptor). After transfection, cells are cultured for 48 h at 37° C./5% CO2.
Receptor activity is detected by changes in BRET signal.
On the day of the assay, cells are detached using trypsin 0.05%, resuspended in assay buffer (1.8 mM CaCl2, 1 mM MgCl2, 2.7 mM KCl, 137 mM NaCl, 0.4 mM NaH2PO4, 5.5 mM D-Glucose, 11.9 mM NaHCO3, 25 mM Hepes) and seeded in 384 well plate at a density of 20,000 cells per well. Then, plates are equilibrated 3.5 hours at 37° C. before adding compounds.
Compounds and luciferase substrate are added to the cells using an automated device (Freedom Evo®, Tecan) and BRET readings are collected on EnVision (PerkinElmer) with specific filters (410 nm BW 80 nm, 515 nm BW 30 nm).
Agonist and antagonist activities of compounds are consecutively evaluated on the same cell plate. Agonist activity is first measured after 10 minutes incubation with compound alone on the cells. Then, cells are stimulated by an EC80 RFRP-3 concentration and luminescence is recorded for additional 10 minutes. EC80 RFRP-3 concentration is the concentration giving 80% of the maximal RFRP-3 response. Agonist or antagonist activities are evaluated in comparison to basal signals evoked by assay buffer or EC80 RFRP-3 alone, respectively.
For IC50 determination, a dose-response test is performed using 20 concentrations (ranging over 6 logs) of each compound. Dose-response curves are fitted using the sigmoidal dose-response (variable slope) analysis in GraphPad Prism software (GraphPad Software) and IC50 of antagonist activity is calculated. Dose-response experiments are performed in duplicate, in two independent experiments.

IC50 [1] [µM] | melting point [°C] | SMILES
0.1 to 1 | 85 to 100 | CCc1nc(N)ccc1-c1cc(F)ccc1-c1ccc(N2CCOCC2)nc1.Cl [Example 83, 6-ethyl-5-(5-fluoro-2-(6-morpholinopyridin-3-yl)phenyl)pyridin-2-amine]
0.1 to 1 | – | CCc1nc(N)ccc1-c1cccc2ccc(OCCN3CCOCC3)nc12 [Example 130, 6-ethyl-5-(2-(2-morpholinoethoxy)quinolin-8-yl)pyridin-2-amine]
0.1 to 1 | 210 to 220 | Cl.Nc1ccc(-c2csc3ccccc23)c(C2CC2)n1 [Example 13, 5-Benzo[b]thiophen-3-yl-6-cyclopropyl-pyridin-2-ylamine]
0.1 to 1 | 234 to 243 | CCc1nc(N)ccc1-c1cccc2ccnn12.Cl [Example 104, 6-ethyl-5-(pyrazolo[1,5-a]pyridin-7-yl)pyridin-2-amine]
0.1 to 1 | > 250 | CCc1nc(N)ccc1-c1csc2ccc(F)cc12.Cl [Example 43, 6-Ethyl-5-(5-fluorobenzothiophen-3-yl)pyridin-2-amine]
< 0.1 | 70 to 75 | CCc1nc(N)ccc1-c1cccc2ccc(-c3ccc4nccn4c3)nc12.Cl [Example 123, 6-ethyl-5-(2-(imidazo[1,2-a]pyridin-6-yl)quinolin-8-yl)pyridin-2-amine]
< 0.1 | 180 to 200 | Cc1cc(-c2ccc(N)nc2N)c2ncccc2c1.Cl [Example 53, 3-(6-methylquinolin-8-yl)pyridine-2,6-diamine]
0.1 to 1 | > 250 | CC(C)c1nc(N)ccc1-c1cccc2ccncc12.Cl [Example 12, 6-Isopropyl-5-(8-isoquinolyl)pyridin-2-amine]
0.1 to 1 | 90 to 95 | CCc1nc(N)ccc1-c1cccc2ccc(C3(C)CC3)nc12.Cl [Example 120, 6-ethyl-5-(2-(1-methylcyclopropyl)quinolin-8-yl)pyridin-2-amine]
0.1 to 1 | 100 to 135 | Cl.Nc1ccc(-c2ccccc2-c2cccnc2)c(N)n1 [Example 45, 3-[2-(3-pyridyl)phenyl]pyridine-2,6-diamine]
< 0.1 | 130 to 170 | CC(C)Cc1nc(N)ccc1-c1c(F)ccc2cccnc12.Cl [Example 70, 5-(7-fluoroquinolin-8-yl)-6-isobutylpyridin-2-amine]
< 0.1 | 140 to 172 | CCc1nc(N)ccc1-c1c(F)ccc2ccc(N3CC4CCC(C3)O4)nc12.Cl [Example 136, 5-(2-(8-oxa-3-azabicyclo[3.2.1]octan-3-yl)-7-fluoroquinolin-8-yl)-6-ethylpyridin-2-amine]
0.1 to 1 | > 250 | CCc1nc(N)ccc1-c1cccc2nccnc12.Cl [Example 101, 6-ethyl-5-(quinoxalin-5-yl)pyridin-2-amine]
< 0.1 | – | Nc1ccc(-c2c(F)ccc3cc(Cl)cnc23)c(N)n1 [Example 60, 3-(3-chloro-7-fluoroquinolin-8-yl)pyridine-2,6-diamine]
– | 156 to 162 | CCc1nc(N)ccc1-c1cccc2ccc(C(=O)NC3COC3)nc12 [Example 175, 8-(6-amino-2-ethylpyridin-3-yl)-N-(oxetan-3-yl)quinoline-2-carboxamide]
< 0.1 | – | CCc1nc(N)ccc1-c1cccc2ccc(-c3cncnc3)nc12 [Example 124, 6-ethyl-5-(2-(pyrimidin-5-yl)quinolin-8-yl)pyridin-2-amine]
< 0.1 | – | CCc1nc(N)ccc1-c1c(Cl)ccc2cc(F)cnc12 [Example 144, 5-(7-chloro-3-fluoroquinolin-8-yl)-6-ethylpyridin-2-amine]
< 0.1 | – | CCc1nc(N)ccc1-c1c(F)ccc2cc(Cl)cnc12 [Example 146, 5-(3-chloro-7-fluoroquinolin-8-yl)-6-ethylpyridin-2-amine]
< 0.1 | – | CCc1nc(N)ccc1-c1cccc2ccc(-c3cccnc3)nc12 [Example 117, 6-ethyl-5-(2-(pyridin-3-yl)quinolin-8-yl)pyridin-2-amine]

IC50 [1] [µM] | melting point [°C] | SMILES
< 0.1 | – | CCc1nc(N)ccc1-c1c(Cl)ccc2cccnc12 [Example 110, 5-(7-chloroquinolin-8-yl)-6-ethylpyridin-2-amine]
< 0.1 | – | CCc1nc(N)ccc1-c1c(F)cc(F)c2cc(Cl)cnc12 [Example 148, 5-(3-chloro-5,7-difluoroquinolin-8-yl)-6-ethylpyridin-2-amine]
– | 160 to 210 | CCc1nc(N)ccc1-c1c(F)ccc2ccc(N(CC)C3CCCCC3)nc12.Cl
0.1 to 1 | – | CCc1nc(N)ccc1-c1cccc2ccoc12 [Example 79, 5-(benzofuran-7-yl)-6-ethylpyridin-2-amine]
– | 214 to 229 | CCc1nc(N)ccc1-c1c(F)ccc2ccc(N(CC)C(C)C)nc12.Cl
0.1 to 1 | – | CCc1nc(N)ccc1-c1cccc2ccc(C(=O)N(C)C)nc12 [Example 140, 8-(6-amino-2-ethylpyridin-3-yl)-N,N-dimethylquinoline-2-carboxamide]
< 0.1 | – | CCc1nc(N)ccc1-c1cccc2ccc(-c3ccccc3)nc12 [Example 116, 6-ethyl-5-(2-phenylquinolin-8-yl)pyridin-2-amine]
< 0.1 | – | Nc1ccc(-c2c(Cl)ccc3ccc(O)nc23)c(N)n1 [Example 63, 8-(2,6-diaminopyridin-3-yl)-7-chloroquinolin-2-ol]
– | 103 to 113 | CCc1nc(N)ccc1-c1cccc2ccc(C(=O)N(C)C)nc12 (as salt: hydrochloride) [Example 140, 8-(6-amino-2-ethylpyridin-3-yl)-N,N-dimethylquinoline-2-carboxamide]
> 1 | – | CCc1nc(N)ccc1-c1cccc2c1N(C)C(=O)CC2 [Example 157, 8-(6-amino-2-ethylpyridin-3-yl)-1-methyl-3,4-dihydroquinolin-2(1H)-one]
< 0.1 | – | CCc1nc(N)ccc1-c1c(Cl)ccc2cc(Cl)cnc12 [Example 147, 5-(3,7-dichloroquinolin-8-yl)-6-ethylpyridin-2-amine]
0.1 to 1 | – | CCc1nc(N)ccc1-c1c(C#N)ccc2cccnc12 [Example 153, 8-(6-amino-2-ethylpyridin-3-yl)quinoline-7-carbonitrile]
< 0.1 | – | CCc1nc(N)ccc1-c1c(F)c(F)cc2cc(Cl)cnc12 [Example 149, 5-(3-chloro-6,7-difluoroquinolin-8-yl)-6-ethylpyridin-2-amine]
0.1 to 1 | – | CCc1nc(N)ccc1-c1cccc2sccc12 [Example 78, 5-(benzo[b]thiophen-4-yl)-6-ethylpyridin-2-amine]
< 0.1 | – | Nc1ccc(-c2cccc3cccnc23)c(N)n1 [Example 31, 3-(8-quinolyl)pyridine-2,6-diamine]
< 0.1 | – | CCc1nc(N)ccc1-c1c(Cl)ccc2ccc(O)nc12 [Example 160, 8-(6-amino-2-ethylpyridin-3-yl)-7-chloroquinolin-2(1H)-one]
< 0.1 | – | Nc1ccc(-c2c(F)cc(F)c3cccnc23)c(N)n1 [Example 59, 3-(5,7-difluoroquinolin-8-yl)pyridine-2,6-diamine]
< 0.1 | – | CCc1nc(N)ccc1-c1c(F)ccc2cc(Br)cnc12 [Example 151, 5-(3-bromo-7-fluoroquinolin-8-yl)-6-ethylpyridin-2-amine]
